These results are taken from patent US20240216357A1 (SICHUAN HUIYU PHARMACEUTICAL CO., LTD., priority 2021, published 2024).

Molecules are shown by their SMILES. Structures can show the parent of a compound that is named as a salt.

The target of the experiment is LSD1 (Homo sapiens (Human), UniProt O60341). Description: LSD1 enzyme activity detection (HTRF). The note with it: HTRF, H3K4me1 substrate; read-out: Inhibition of enzymatic activity of LSD1 IC50. It counts as biochemical.
The IC50 is the concentration at which inhibition is half-maximal. With `Cc1noc2cc(-c3sc(C(=O)N4C5CCC4CC(N)C5)cc3-c3ccc(S(N)(=O)=O)cc3)c(F)cc12` (centres unmarked) [Example 212, 4-(5-(3-amino-8-azabicyclo [3.2.1]octane-8-carbonyl)-2-(5-fluoro-3-methyl-benzo[d]isoxazol-6-yl)thiophen-3-yl)benzene-sulfonamide], the IC50 worked out at 0.207 µM.

For `N#Cc1ccc(-c2nc(N3CCC(N)CC3)cc(O)c2-c2ccc3c(c2)OC(F)(F)O3)cc1F` [Example 30, 4-(6-(4-aminopiperidin-1-yl)-3-(2,2-difluorobenzo[d][1,3]dioxol-5-yl)-4-hydroxypyridin-2-yl)-2-fluorobenzonitrile hydrochloride], the half-maximal inhibitory concentration (IC50) worked out at 0.213 µM.

As for `Cc1ccc(-c2c(-c3ccc(C#N)cc3)cc3c(N4CCCCC4)nccn23)cc1` [Example 191, 4-(1-(piperidin-1-yl)-6-(p-tolyl)pyrrolo[1,2-a]pyrazin-7-yl)benzonitrile], the half-inhibitory concentration (IC50) worked out at 0.104 µM.

For the molecule `Cc1noc2cc(-c3sc(C(=O)N4C5CCC4CC(N)C5)cc3-c3ccccc3)c(F)cc12` (centres unmarked) [Example 207, (3-amino-8-azabicyclo [3.2.1]octan-8-yl)(5-(5-fluoro-3-methylbenzo[d]isoxazol-6-yl)-4-phenyithio-phene-2-yl)methanone hydrochloride], the concentration for half-maximal inhibition (IC50) worked out at 1.25 µM.

Turning to `COc1ccc(-c2c(-c3ccc(C#N)c(C)c3)nc(N3C4CCC3CC(N)C4)n3ccnc23)cc1F` (centres unmarked) [Example 184, 4-(5-(3-amino-8-azabicyclo[3.2.1]octane-8-yl)-8-(3-fluoro-4-methoxyphenyl)imidazolo[1,2-c]pyrimidin-7-yl)-2-methylbenzonitrile hydrochloride], the IC50 turned out to be 0.111 µM.

Consider `Cc1ccc(-c2c(-c3ccc(C#N)cc3)cc3c(N4CCN(C)CC4)nncn23)cc1` [Example 195, 4-(1-(4-methylpiperazin-1-yl)-6-(p-tolyl)pyrrolo[1,2-d][1,2,4]triazine-7-yl)benzonitrile], for which the IC50 was 0.208 µM.

For `COc1ccc(-c2c(O)cc(NC3CCNCC3)nc2-c2ccc(C#N)c(F)c2)cc1F` [Example 40, 2-fluoro-4-(3-(3-fluoro-4-methoxyphenyl)-4-hydroxy-6-(piperidin-4-ylamino)pyridin-2-yl)benzonitrile], the IC50 is 0.28 µM.

In the case of `Cc1noc2cc(-c3sc(C(=O)N4C5CCC4CC(N)C5)cc3-c3cncnc3)c(F)cc12` (centres unmarked) [Example 206, (3-amino-8-azabicyclo [3.2.1]octan-8-yl)(5-(5-fluoro-3-methylbenzo[d]isoxazol-6-yl)-4-(pyrimidine-5-yl)thiophen-2-yl) methanone hydrochloride], the IC50 is 0.432 µM.

Turning to `COc1cc(-c2c(-c3ccc(C#N)c(F)c3)nc(N3CCC(N)CC3)n3ccnc23)ccc1O` [Example 141, 4-(5-(4-aminopiperidin-1-yl)-8-(4-hydroxy-3-methoxyphenyl)imidazolo[1,2-c]pyrimidin-7-yl)-2-fluorobenzonitrile formate], the IC50 stood at 0.224 µM.

On to `Cc1noc2cc(-c3sc(C(=O)N4C5CCC4CC(N)C5)cc3-c3ccc(S(C)(=O)=O)cc3)c(F)cc12` (centres unmarked) [Example 213, (3-amino-8-azabicyclo [3.2.1]octan-8-yl) (5-(5-fluoro-3-methylbenzo [d]isoxazol-6-yl)-4-(4-(methyldimethylsulfoxide-16-sulfonyl)phenyl)thio-phen-2-yl)methanone], for which the IC50 was found to be 0.0367 µM.

Consider `Cc1ccc(-c2c(-c3ccc(C#N)cc3)cc3c(N4CCC(N)CC4)ccnn23)cc1` [Example 198, hydrochloride], for which the IC50 turned out to be 0.174 µM.

As to `COc1ccc(-c2cnc(N3CC4CCC(C3)C4N)c(C#N)c2-c2ccc(C#N)c(F)c2)cc1O` (centres unmarked) [Example 74, 2-(8-amino-3-azabicyclo[3.2.1]octane-3-yl)-4-(4-cyano-3-fluorophenyl)-5-(3-hydroxy-4-methoxyphenyl) nicotinonitrile], the IC50 worked out at 0.166 µM.

Take `CS(=O)(=O)N1CCN(c2cc(CN[C@@H]3C[C@H]3c3ccc(F)cc3)nc(-c3ccc(N4CCOCC4)cc3)n2)CC1` [Example 265, (1R,2S)-2-(4-fluorophenyl)-N-((6-(4-(methylsulfonyl)piperazin-1-yl)-2-(4-morpholinophenyl)pyrimidin-4-yl)methyl) cyclopropane-1-amine]: the IC50 came out at 0.224 µM.

`COc1ccc(-c2c(O)cc(N3CCC(N)CC3)nc2-c2ccc(C#N)c(F)c2)cc1OC` [Example 33, 4-(6-(4-aminopiperidin-1-yl)-3-(3,4-dimethoxyphenyl)-4-hydroxypyridin-2-yl)-2-fluorobenzonitrile hydrochloride]: the IC50 came to 0.21 µM.

As to `COc1ccc(-c2cnc(N3C4CCC3CC(N)C4)c(C#N)c2-c2ccc(C#N)c(F)c2)cc1O` (centres unmarked) [Example 81, 2-(3-amino-8-azabicyclo [3.2.1]octane-8-yl)-4-(4-cyano-3-fluorophenyl)-5-(3-hydroxy-4-methoxyphenyl) nicotinonitrile], the IC50 was found to be 0.671 µM.

Take `COc1ccc(-c2c(-c3cnc(C#N)nc3)nc(N3C4CCC3CC(N)C4)n3ccnc23)cc1F` (centres unmarked) [Example 180, 5-(5-(3-amino-8-azabicyclo [3.2.1]octane-8-yl)-8-(3-fluoro-4-methoxyphenyl)imidazolo[1,2-c]pyrimidin-7-yl) pyrimidin-2-carbonitrile]: the IC50 was determined as 0.0771 µM.

`COc1ccc(-c2c(-c3ccc(C#N)c(C#N)c3)nc(N3C4CCC3CC(N)C4)n3ccnc23)cc1F` (centres unmarked) [Example 181, 4-(5-(3-amino-8-azabicyclo [3.2.1]octane-8-yl)-8-(3-fluoro-4-methoxyphenyl)imidazolo[1,2-c]pyrimidin-7-yl) phthalonitrile hydrochloride]: the IC50 is 0.193 µM.

Regarding `Cc1noc2cc(-c3sc(C(=O)N4C5CCC4CC(N)C5)cc3-c3ccccn3)c(F)cc12` (centres unmarked) [Example 210, (3-amino-8-azabicyclo [3.2.1]octan-8-yl)(5-(5-fluoro-3-methylbenzo[d]isoxazol-6-yl)-4-(pyridin-2-yl)thiophen-2-yl)methanone], the concentration for half-maximal inhibition (IC50) was 5.52 µM.

Take `Cc1noc2cc(-c3sc(C(=O)N4C5CCC4CC(N)C5)cc3-c3cccnc3)c(F)cc12` (centres unmarked) [Example 208, (3-amino-8-azabicyclo [3.2.1]octan-8-yl) (5-(5-fluoro-3-methylbenzo [d]isoxazol-6-yl)-4-(pyridin-3-yl)thiophen-2-yl) methanone hydrochloride]: the half-maximal inhibitory concentration (IC50) was 0.641 µM.

As for `CC(C)(O)Cn1ncc2cc(F)c(-c3c(O)cc(N4CCC(N)CC4)nc3-c3ccc(C#N)c(F)c3)cc21` [Example 28, hydrochloride], the 50% inhibitory concentration (IC50) came out at 0.441 µM.

For `Cc1noc2cc(-c3sc(C(=O)N4C5CCC4CC(N)C5)cc3-c3ccc4cn[nH]c4c3)c(F)cc12` (centres unmarked) [Example 205, (3-amino-8-azabicyclo [3.2.1]octane-8-yl) (5-(5-fluoro-3-methylbenzo[d]isoxazol-6-yl)-4-(1H-indazol-6-yl)thiophen-2-yl)methanone hydrochloride], the concentration for half-maximal inhibition (IC50) was determined as 0.902 µM.

`COc1ccc(-c2c(C3CCC(C#N)CC3)nc(N3C4CCC3CC(N)C4)n3ccnc23)cc1F` (centres unmarked) [Example 179, 4-(5-(3-amino-8-azadicyclo [3.2.1]octane-8-yl)-8-(3-fluoro-4-methoxyphenyl)imidazolo[1,2-c]pyrimidin-7-yl) cyclohexane-1-carbonitrile hydrochloride]: the IC50 was found to be 0.939 µM.

With `Cc1noc2cc(-c3sc(C(=O)N4C5CCC4CC(N)C5)cc3-c3ncccn3)c(F)cc12` (centres unmarked) [Example 211], the IC50 worked out at 0.206 µM.
